Where two headings read alike, the source gives them in different places.
Columns and labels:
BV2 cells = experiment: Aβ phagocytosis assay in BV2 cells; format: cell-based, mice; conditions: versus control group
AChE [1] = molecular target: AChE (Homo sapiens, UniProt P22303); experiment: biochemical; format: biochemical
AChE [2] = molecular target: AChE (Electrophorus electricus, UniProt O42275); experiment: biochemical; format: binding
MAO-A = MAO-A (Homo sapiens, UniProt P21397); experiment: MAO-A inhibition rate, enhanced Weissbach's method; format: biochemical
MAO-A, sequence (P21397 whole entry): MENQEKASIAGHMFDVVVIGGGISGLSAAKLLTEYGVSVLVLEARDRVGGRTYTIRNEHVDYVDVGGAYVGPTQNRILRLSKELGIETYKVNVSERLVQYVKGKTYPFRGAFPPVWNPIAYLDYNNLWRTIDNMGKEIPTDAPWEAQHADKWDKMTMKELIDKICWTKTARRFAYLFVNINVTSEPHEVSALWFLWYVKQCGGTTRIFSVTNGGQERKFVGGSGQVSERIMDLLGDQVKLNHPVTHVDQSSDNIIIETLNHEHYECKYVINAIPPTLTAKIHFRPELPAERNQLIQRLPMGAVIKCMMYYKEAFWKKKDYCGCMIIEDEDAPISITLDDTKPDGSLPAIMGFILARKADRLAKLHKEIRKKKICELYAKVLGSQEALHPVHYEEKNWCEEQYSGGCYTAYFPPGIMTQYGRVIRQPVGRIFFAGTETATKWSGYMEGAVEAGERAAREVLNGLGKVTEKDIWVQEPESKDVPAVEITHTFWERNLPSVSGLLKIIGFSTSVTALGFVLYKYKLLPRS

[3] = molecular target: recombinant MAO-A from human (Homo sapiens, UniProt P21397); experiment: SPR affinity detection with MAO-A; format: binding
recombinant MAO-A from human, sequence (P21397 whole entry): as above

[4] = rats, oral KXS 10 mL/kg (4 g/mL), 8 days

AChE (Electrophorus electricus, UniProt O42275), sequence (O42275 24-633): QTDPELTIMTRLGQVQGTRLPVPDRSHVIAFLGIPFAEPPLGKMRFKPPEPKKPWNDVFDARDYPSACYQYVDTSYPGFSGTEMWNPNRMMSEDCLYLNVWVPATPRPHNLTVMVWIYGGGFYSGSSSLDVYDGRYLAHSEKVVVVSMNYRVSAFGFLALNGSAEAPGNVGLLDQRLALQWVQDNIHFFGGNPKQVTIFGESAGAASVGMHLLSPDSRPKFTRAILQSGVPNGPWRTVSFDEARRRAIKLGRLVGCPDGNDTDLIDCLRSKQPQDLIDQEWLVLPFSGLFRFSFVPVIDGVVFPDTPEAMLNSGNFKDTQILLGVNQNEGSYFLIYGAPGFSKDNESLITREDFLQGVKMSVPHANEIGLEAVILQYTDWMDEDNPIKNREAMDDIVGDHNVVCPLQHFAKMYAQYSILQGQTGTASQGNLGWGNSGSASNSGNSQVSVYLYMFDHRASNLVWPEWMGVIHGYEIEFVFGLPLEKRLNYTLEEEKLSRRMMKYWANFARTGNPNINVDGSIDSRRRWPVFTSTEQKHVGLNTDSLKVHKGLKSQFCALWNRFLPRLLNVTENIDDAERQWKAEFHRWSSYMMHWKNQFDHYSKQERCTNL

With `CC(C)(C)c1ccc(O)c(C(C)(C)C)c1` [2,4-Di-tert-butylphenol] the “phagocytic ability of BV2 cells towards FITC-Aβ1−42 (fluorescence intensity)” value (shortened to “phagocytic ability”) (BV2 cells) was “notable improvements in phagocytic activity”, the IC50 (AChE [1]) was 4.51 ± 0.191 µM and the “AChE inhibitory rate compared with galantamine” value (AChE [1]; 25 μM) was “surpassed that of galantamine”. The Kd (AChE [2]) was 0.133 µM.

With `COc1cc2c(=O)c3c(O)c([C@@H]4O[C@H](CO)[C@@H](O)[C@H](O)[C@H]4O)c(O)cc3oc2cc1O` [7-O-methylmangiferin] the “inhibitory effect on AChE (in words)” value (AChE [1]) was “relatively low”, the IC50 (AChE [1]; read-out: AChE IC50) was 2.98 ± 0.245 µM and the Kd (AChE [2]; read-out: AChE Affinity KD) was 16.9 µM.

In the case of `CC12CCC(CC1=O)C2(C)C` (stereo not shown) [Camphor], the “phagocytic ability” value (BV2 cells) is reported as “effectively enhanced the phagocytic capability”, the AChE inhibition rate (AChE [1]) is reported as “exceeding 80%” and the IC50 (AChE [1]) is reported as 6.23 ± 0.567 µM. It also gave a Kd (AChE [2]) of 0.0251 µM.

For `C#CCN(C)CCCOc1ccc(Cl)cc1Cl` [Clorgyline, reference compound], the “MAO-A inhibition rate (in words)” value (MAO-A) was “highest inhibition rate”.

With `C=CCc1cc(OC)c(OC)c(OC)c1` [Elemicin] the “phagocytic ability” value (BV2 cells) was “significantly enhanced phagocytic ability”, the IC50 (MAO-A) was 62.2 ± 1.08 µM and the “MAO-A inhibition rate (in words)” value (MAO-A; concentrations up to 50 μM) was “comparable inhibition rate”. It also gave a Kd [3] of 4.69 µM.

For `C=CCc1ccc(OC)cc1` [Estragole], the “phagocytic ability” value (BV2 cells) was “notable improvements in phagocytic activity”, the IC50 (MAO-A) was 144 ± 7.43 µM and the Kd [3] was 2.35 µM.

In the case of `C=CCc1ccc(OC)c(OC)c1` [Methyl eugenol], the “phagocytic ability” value (BV2 cells) is reported as “weaker phagocytic ability”, the IC50 (MAO-A) is reported as 96.1 ± 9.87 µM and the Kd [3] is reported as 5.83 µM.

For `C/C=C/c1ccc(OC)c(OC)c1` [Methyl isoeugenol], the “phagocytic ability” value (BV2 cells) was “weaker phagocytic ability”, the IC50 (AChE [1]) was 9.68 ± 0.353 µM and the Kd (AChE [2]) was 0.0185 µM.

`O=c1c2cc(O)ccc2oc2cc(O)c([C@@H]3O[C@H](CO)[C@@H](O)[C@H](O)[C@H]3O[C@@H]3OC[C@](O)(CO)[C@H]3O)c(O)c12` [Sibiricaxanthone B] gave a Kd (AChE [2]; read-out: AChE Affinity KD) of 1.2 µM.

With `CCCCCCCCCCCCCCCC(=O)OC` [methyl palmitate] the “phagocytic ability” value (BV2 cells) was “effectively enhanced the phagocytic capability” and the AChE inhibition rate (AChE [1]) was “exceeding 80%”.

For `CC1=CCC(O)(C(C)C)CC1` (stereo not shown) [terpinen-4-ol], the “phagocytic ability” value (BV2 cells) was “effectively enhanced the phagocytic capability” and the “phagocytic ability” value (BV2 cells; listed as terpiene-4-ol) was “weaker phagocytic ability”.

In the case of `C/C=C/c1cc(OC)c(OC)cc1OC` [α-asarone], the “phagocytic ability” value (BV2 cells) is reported as “notable improvements in phagocytic activity” and the “detection in brain tissue” value [4] is reported as “found in brain samples”.

For `C/C=C\c1cc(OC)c(OC)cc1OC` [β-asarone], the “phagocytic ability” value (BV2 cells) was “notable improvements in phagocytic activity” and the “detection in brain tissue” value [4] was “found in brain samples”.
